Laboratory results as given in patent US10654847B2, “Substituted 2-(4-heterocyclylbenzyl)isoindolin-1-one analogs as positive allosteric modulators of the muscarinic acetylcholine receptor M1” (Vanderbilt University, priority 2011, dated 2020).
Read-outs that look alike come from different tables or passages of the source.

Biological target: T1, mAChR M1 (UniProt P11229)
T1 sequence (P11229 1-460): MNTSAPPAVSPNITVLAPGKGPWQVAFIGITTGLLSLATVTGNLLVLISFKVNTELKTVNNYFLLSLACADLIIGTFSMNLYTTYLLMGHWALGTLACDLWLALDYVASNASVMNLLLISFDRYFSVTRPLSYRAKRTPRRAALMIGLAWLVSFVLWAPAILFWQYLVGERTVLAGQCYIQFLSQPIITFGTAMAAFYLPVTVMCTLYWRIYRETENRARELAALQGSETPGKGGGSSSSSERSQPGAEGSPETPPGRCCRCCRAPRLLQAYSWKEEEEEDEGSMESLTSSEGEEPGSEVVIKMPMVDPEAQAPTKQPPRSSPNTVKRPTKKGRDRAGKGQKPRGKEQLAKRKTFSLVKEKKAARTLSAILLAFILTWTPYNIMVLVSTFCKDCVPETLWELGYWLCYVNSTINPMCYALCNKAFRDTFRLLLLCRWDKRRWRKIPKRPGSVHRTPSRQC
Assay: mAChR M1 cell-based functional assay (calcium mobilization, potentiation of EC20 acetylcholine response)
Conditions: for Emax (%): % ACh maximum at 30 μM, mAChR M1-expressing CHO-K1 cells, calcium flux; for pEC50 / EC50: positive allosteric modulation of EC20 ACh response, mAChR M1 CHO-K1 cells; for pEC50: <5 estimated where no plateau; for EC50: >10 μM estimated where no plateau
Procedure: Chinese hamster ovary (CHO-K1) cells stably expressing rat (r)M1 were purchased from the American Type Culture Collection and cultured according to their indicated protocol. […] To make stable rM2, hM2, rM3, hM4, and rM4 cell lines for use in calcium mobilization assays, these cells also were stably transfected with a chimeric G-protein (Gqi5) (provided by B. R. Conklin, University of California, San Francisco) using Lipofectamine 2000. rM1, hM1, rM3, hM3, rM5, and hM5 cells were grown in Ham's F-12 medium containing 10% heat-inactivated fetal bovine serum (FBS), 20 mM HEPES, and 50 μg/mL G418 sulfate. rM2-Gqi5, hM2-Gqi5, and hM4-Gqi5 cells were grown in the same medium also containing 500 μg/mL Hygromycin B. Stable rM4-Gqi5 cells were grown in DMEM containing 10% heat-inactivated FBS, 20 mM HEPES, 400 μg/mL G418 sulfate, and 500 μg/mL Hygromycin B.
For high throughput measurement of agonist-evoked increases in intracellular calcium, CHO-K1 cells stably expressing muscarinic receptors were plated in growth medium lacking G418 and hygromycin at 15,000 cells/20 μL/well in Greiner 384-well black-walled, tissue culture (TC)-treated, clear-bottom plates (VWR). Cells were incubated overnight at 37° C. and 5% CO2. […] Compound master plates were formatted in an 11 point CRC format (1:3 dilutions) in 100% DMSO with a starting concentration of 10 mM using the BRAVO liquid handler (Agilent). Test compound CRCs were then transferred to daughter plates (240 nL) using the Echo acoustic plate reformatter (Labcyte, Sunnyvale, Calif.) and then diluted into assay buffer (40 μL) to a 2× stock using a Thermo Fisher Combi (Thermo Fisher Scientific, Waltham, Mass.).
Calcium flux was measured using the Functional Drug Screening System (FDSS) 6000 (Hamamatsu Corporation, Tokyo, Japan) as an increase in the fluorescent static ratio. Compounds were applied to cells (20 μL, 2×) using the automated system of the FDSS 6000 at 4 s into the 300 s protocol and the data were collected at 1 Hz. […] Agonist activity was analyzed as a concentration-dependent increase in calcium mobilization upon compound addition. Positive allosteric modulator activity was analyzed as a concentration-dependent increase in the EC20 acetylcholine response. Antagonist activity was analyzed as a concentration-dependent decrease in the EC80 acetylcholine response. Concentration-response curves were generated using a four-parameter logistical equation in XLfit curve fitting software (IDBS, Bridgewater, N.J.) for Excel (Microsoft, Redmond, Wash.) or Prism (GraphPad Software, Inc., San Diego, Calif.).
The above described assay was also operated in a second mode where an appropriate fixed concentration of the present compounds were added to the cells after establishment of a fluorescence baseline for about 3 seconds, and the response in cells was measured. […] Data were reduced as described above and the EC50 values for the agonist in the presence of test compound were determined by nonlinear curve fitting. A decrease in the EC50 value of the agonist with increasing concentrations of the present compounds (a leftward shift of the agonist concentration-response curve) is an indication of the degree of muscarinic positive allosteric modulation at a given concentration of the present compound. An increase in the EC50 value of the agonist with increasing concentrations of the present compounds (a rightward shift of the agonist concentration response curve) is an indication of the degree of muscarinic antagonism at a given concentration of the present compound. The second mode also indicates whether the present compounds also affect the maximum response of the muscarinic receptor to agonists.
The calcium mobilization assay was also used to determine “efficacy”.

Compound | Emax (%) | pEC50 | EC50 (read-out: EC50) | EC50
O=C1c2cccnc2CN1Cc1ccc(-c2ccnc3ccccc23)cc1F [Example B45] | 44% | 5.43 | 3.72 µM | –
Cc1cc(-c2ccc(CN3Cc4ncccc4C3=O)c(F)c2)cnc1Cl [Example B46] | 33% | 5.99 | 1.02 µM | –
O=C1c2cccnc2CN1Cc1ccc(-c2cccnc2)cc1F [Example B47] | 54% | 5.22 | 6.03 µM | –
O=C1c2cccnc2CN1Cc1ccc(-c2ccc3ncccc3c2)cc1F [Example B48] | 65% | 6.08 | 0.832 µM | –
O=C1c2cccnc2CN1Cc1ccc(-c2ccc3ccncc3c2)cc1F [Example B49] | 68% | 5.81 | 1.55 µM | –
COc1ccc(-c2ccc(CN3Cc4ncccc4C3=O)c(F)c2)cc1 [Example B50] | 34% | 6.01 | 0.977 µM | –
Cn1cc2cc(-c3cc(F)c(CN4Cc5ncccc5C4=O)c(F)c3)ccc2n1 [Example B51] | 73% | 6.59 | 0.257 µM | –
CN(C)c1ccc(-c2ccc(CN3Cc4ncccc4C3=O)c(F)c2)cc1 [Example B52] | 53% | <5.00 | > 10 µM | –
CN1CC=C(c2ccc(CN3Cc4ncccc4C3=O)c(F)c2)CC1 [Example B53] | 80% | 5.51 | 3.09 µM | –
Cn1cnc2ccc(-c3ccc(CN4Cc5ncccc5C4=O)c(F)c3)cc21 [Example B54] | 81% | 6.13 | 0.741 µM | –
CN1CCc2cc(-c3ccc(CN4Cc5ncccc5C4=O)c(F)c3)ccc21 [Example B55] | 60% | 5.64 | – | 2.29 µM
Cn1cc2cc(-c3ccc(CN4Cc5ncncc5C4=O)c(F)c3)ccc2n1 [Example B56] | 80% | 6.40 | 0.398 µM | –
O=C1c2cccnc2CN1Cc1ccc(-c2ccc3nccn3c2)cc1F [Example B57] | 69% | 5.68 | 2.09 µM | –
Cn1cc2cc(Nc3ccc(CN4Cc5ncccc5C4=O)c(F)c3)ccc2n1 [Example B58] | 66% | 5.43 | 3.72 µM | –
Cn1cc2cc(-c3ccc(CN4Cc5ncccc5C4=O)cc3)ccc2n1 [Example B59] | 56% | 6.30 | 0.501 µM | –
Cn1ncc2ccc(-c3ccc(CN4Cc5cccnc5C4=O)c(F)c3)cc21 [Example B60] | 76% | 5.80 | 1.59 µM | –
Cn1ncc2cc(-c3ccc(CN4Cc5cccnc5C4=O)c(F)c3)ccc21 [Example B61] | 38% | <5.00 | > 10 µM | –
Cn1cc2c(-c3ccc(CN4Cc5cccnc5C4=O)c(F)c3)cccc2n1 [Example B62] | 72% | 6.07 | 0.851 µM | –
Cc1cc(-c2ccc(CN3Cc4cccnc4C3=O)c(F)c2)cnc1Cl [Example B63] | 48% | 5.73 | 1.86 µM | –
O=C1c2ncccc2CN1Cc1ccc(-c2cccnc2)cc1F [Example B64] | 50% | <5.00 | > 10 µM | –
